Test results reported in PubChem BioAssay (NCI).
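All cell lines were grown in 96-well plates and treated with compound for 48 hours. Abbreviation: GI50, concentration required for 50% inhibition of growth. The concentration for full growth arrest is given as TGI.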

Tests used:
Test in all cases: growth of human tumour cells (NCI), 48 h
OVCAR-4 ovarian = system: OVCAR-4 ovarian
CAKI-1 renal = system: CAKI-1 renal
SR leukemia = system: SR leukemia
HOP-92 NSCLC = system: HOP-92 NSCLC
MDA-MB-435 = system: MDA-MB-435
CCRF-CEM leukemia = system: CCRF-CEM leukemia
NCI-H460 lung = system: NCI-H460 lung
LOX IMVI melanoma = system: LOX IMVI melanoma
DU-145 prostate = system: DU-145 prostate
ACHN renal = system: ACHN renal
MALME-3M melanoma = system: MALME-3M melanoma
HT29 colon = system: HT29 colon
OVCAR-3 ovarian = system: OVCAR-3 ovarian
UACC-257 melanoma = system: UACC-257 melanoma
IGROV1 ovarian = system: IGROV1 ovarian
BT-549 breast = system: BT-549 breast
SW-620 colon = system: SW-620 colon
786-0 renal = system: 786-0 renal
SN12C renal = system: SN12C renal
SK-MEL-28 melanoma = system: SK-MEL-28 melanoma
NCI-H226 lung = system: NCI-H226 lung
U251 CNS = system: U251 CNS
EKVX NSCLC = system: EKVX NSCLC
NCI-H23 lung = system: NCI-H23 lung
NCI-H522 lung = system: NCI-H522 lung
SNB-75 CNS = system: SNB-75 CNS
HL-60(TB) leukemia = system: HL-60(TB) leukemia
SF-268 CNS = system: SF-268 CNS
MCF7 breast = system: MCF7 breast
RPMI-8226 leukemia = system: RPMI-8226 leukemia
KM12 colon = system: KM12 colon
HS 578T breast = system: HS 578T breast
HCT-15 colon = system: HCT-15 colon
M14 melanoma = system: M14 melanoma
SF-295 CNS = system: SF-295 CNS
HOP-62 NSCLC = system: HOP-62 NSCLC
A549 NSCLC = system: A549 NSCLC
SNB-19 CNS = system: SNB-19 CNS
RXF 393 renal = system: RXF 393 renal
TK-10 renal = system: TK-10 renal
SF-539 CNS = system: SF-539 CNS
SK-MEL-2 melanoma = system: SK-MEL-2 melanoma
OVCAR-5 ovarian = system: OVCAR-5 ovarian
UO-31 renal = system: UO-31 renal
PC-3 prostate = system: PC-3 prostate
OVCAR-8 ovarian = system: OVCAR-8 ovarian
SK-OV-3 ovarian = system: SK-OV-3 ovarian
HCC-2998 colon = system: HCC-2998 colon
NCI/ADR-RES ovarian = system: NCI/ADR-RES ovarian
MDA-MB-231 breast = system: MDA-MB-231 breast
MOLT-4 leukemia = system: MOLT-4 leukemia
HCT-116 colon = system: HCT-116 colon
UACC-62 melanoma = system: UACC-62 melanoma
A498 renal = system: A498 renal
SK-MEL-5 melanoma = system: SK-MEL-5 melanoma
COLO 205 colon = system: COLO 205 colon
T-47D breast = system: T-47D breast

[N-]=[N+]=NCCCn1c2c(c3ccccc3c1=O)C(=O)c1cc(Br)ccc1-2
GI50 (OVCAR-4 ovarian): > 100 µM | TGI (OVCAR-4 ovarian): > 100 µM | GI50 (CAKI-1 renal): > 100 µM | TGI (CAKI-1 renal): > 100 µM | GI50 (SR leukemia): 9.82 µM | TGI (SR leukemia): 51.7 µM | GI50 (HOP-92 NSCLC): 9.42 µM | TGI (HOP-92 NSCLC): 92.4 µM | GI50 (MDA-MB-435): > 100 µM | TGI (MDA-MB-435): > 100 µM | GI50 (CCRF-CEM leukemia): 50.8 µM | TGI (CCRF-CEM leukemia): > 100 µM | GI50 (NCI-H460 lung): 46.8 µM | TGI (NCI-H460 lung): > 100 µM | GI50 (LOX IMVI melanoma): > 100 µM | TGI (LOX IMVI melanoma): > 100 µM | GI50 (DU-145 prostate): > 100 µM | TGI (DU-145 prostate): > 100 µM | GI50 (ACHN renal): > 100 µM | TGI (ACHN renal): > 100 µM | GI50 (MALME-3M melanoma): > 100 µM | TGI (MALME-3M melanoma): > 100 µM | GI50 (HT29 colon): > 100 µM | TGI (HT29 colon): > 100 µM | GI50 (OVCAR-3 ovarian): > 100 µM | TGI (OVCAR-3 ovarian): > 100 µM | GI50 (UACC-257 melanoma): > 100 µM | TGI (UACC-257 melanoma): > 100 µM | GI50 (IGROV1 ovarian): > 100 µM | TGI (IGROV1 ovarian): > 100 µM | GI50 (BT-549 breast): > 100 µM | TGI (BT-549 breast): > 100 µM | GI50 (SW-620 colon): > 100 µM | TGI (SW-620 colon): > 100 µM | GI50 (786-0 renal): > 100 µM | TGI (786-0 renal): > 100 µM | GI50 (SN12C renal): > 100 µM | TGI (SN12C renal): > 100 µM | GI50 (SK-MEL-28 melanoma): > 100 µM | TGI (SK-MEL-28 melanoma): > 100 µM | GI50 (NCI-H226 lung): > 100 µM | TGI (NCI-H226 lung): > 100 µM | GI50 (U251 CNS): > 100 µM | TGI (U251 CNS): > 100 µM | GI50 (EKVX NSCLC): > 100 µM | TGI (EKVX NSCLC): > 100 µM | GI50 (NCI-H23 lung): > 100 µM | TGI (NCI-H23 lung): > 100 µM | GI50 (NCI-H522 lung): > 100 µM | TGI (NCI-H522 lung): > 100 µM | GI50 (SNB-75 CNS): 45.1 µM | TGI (SNB-75 CNS): > 100 µM | GI50 (HL-60(TB) leukemia): > 100 µM | TGI (HL-60(TB) leukemia): > 100 µM | GI50 (SF-268 CNS): > 100 µM | TGI (SF-268 CNS): > 100 µM | GI50 (MCF7 breast): 39.8 µM | TGI (MCF7 breast): > 100 µM | GI50 (RPMI-8226 leukemia): > 100 µM | TGI (RPMI-8226 leukemia): > 100 µM | GI50 (KM12 colon): > 100 µM | TGI (KM12 colon): > 100 µM | GI50 (HS 578T breast): > 100 µM | TGI (HS 578T breast): > 100 µM | GI50 (HCT-15 colon): > 100 µM | TGI (HCT-15 colon): > 100 µM | GI50 (M14 melanoma): > 100 µM | TGI (M14 melanoma): > 100 µM | GI50 (SF-295 CNS): > 100 µM | TGI (SF-295 CNS): > 100 µM | GI50 (HOP-62 NSCLC): > 100 µM | TGI (HOP-62 NSCLC): > 100 µM | GI50 (A549 NSCLC): > 100 µM | TGI (A549 NSCLC): > 100 µM | GI50 (SNB-19 CNS): > 100 µM | TGI (SNB-19 CNS): > 100 µM | GI50 (RXF 393 renal): > 100 µM | TGI (RXF 393 renal): > 100 µM | GI50 (TK-10 renal): > 100 µM | TGI (TK-10 renal): > 100 µM | GI50 (SF-539 CNS): > 100 µM | TGI (SF-539 CNS): > 100 µM | GI50 (SK-MEL-2 melanoma): > 100 µM | TGI (SK-MEL-2 melanoma): > 100 µM | GI50 (OVCAR-5 ovarian): > 100 µM | TGI (OVCAR-5 ovarian): > 100 µM | GI50 (UO-31 renal): > 100 µM | TGI (UO-31 renal): > 100 µM | GI50 (PC-3 prostate): > 100 µM | TGI (PC-3 prostate): > 100 µM | GI50 (OVCAR-8 ovarian): > 100 µM | TGI (OVCAR-8 ovarian): > 100 µM | GI50 (SK-OV-3 ovarian): > 100 µM | TGI (SK-OV-3 ovarian): > 100 µM | GI50 (HCC-2998 colon): > 100 µM | TGI (HCC-2998 colon): > 100 µM | GI50 (NCI/ADR-RES ovarian): > 100 µM | TGI (NCI/ADR-RES ovarian): > 100 µM | GI50 (MDA-MB-231 breast): > 100 µM | TGI (MDA-MB-231 breast): > 100 µM | GI50 (MOLT-4 leukemia): 28.9 µM | TGI (MOLT-4 leukemia): > 100 µM | GI50 (HCT-116 colon): > 100 µM | TGI (HCT-116 colon): > 100 µM | GI50 (UACC-62 melanoma): > 100 µM | TGI (UACC-62 melanoma): > 100 µM | GI50 (A498 renal): > 100 µM | TGI (A498 renal): > 100 µM | GI50 (SK-MEL-5 melanoma): > 100 µM | TGI (SK-MEL-5 melanoma): > 100 µM | GI50 (COLO 205 colon): > 100 µM | TGI (COLO 205 colon): > 100 µM | GI50 (T-47D breast): > 100 µM | TGI (T-47D breast): > 100 µM
